Columns and labels:
Format in all cases: in vivo
Alopecurus myosuroides [1] = test: Post-emergence herbicidal effect; details: 80 g/ha, post-emergence at one-leaf stage, assessed visually after about 3 weeks; 100% = plants have died, 0% = like control plants
Method: (§1) Seeds of monocotyledonous and dicotyledonous weed and crop plants are laid out in sandy loam soil in wood-fiber pots, covered with soil and cultivated in a greenhouse under good growth conditions. 2 to 3 weeks after sowing, the test plants are treated at the one-leaf stage. The compounds of the invention, formulated in the form of wettable powders (WP) or as emulsion concentrates (EC), are then sprayed onto the green parts of the plants as aqueous suspension or emulsion at a water application rate equating to 600 to 800 l/ha with addition of 0.2% wetting agent. After the test plants have been left to stand in the greenhouse under optimal growth conditions for about 3 weeks, the action of the preparations is assessed visually in comparison to untreated controls (herbicidal action in per cent (%): 100% activity=the plants have died, 0% activity=like control plants).

Hordeum murinum [2] = test: Post-emergence herbicidal effect; details: 80 g/ha, post-emergence at one-leaf stage, assessed visually after about 3 weeks; 100% = plants have died, 0% = like control plants
Method: as §1

Setaria viridis [3] = test: Post-emergence herbicidal effect; details: 80 g/ha, post-emergence at one-leaf stage, assessed visually after about 3 weeks; 100% = plants have died, 0% = like control plants
Method: as §1

Lolium rigidum [4] = test: Post-emergence herbicidal effect; details: 80 g/ha, post-emergence at one-leaf stage, assessed visually after about 3 weeks; 100% = plants have died, 0% = like control plants
Method: as §1

Digitaria sanguinalis = test: Post-emergence herbicidal effect; details: 80 g/ha, post-emergence at one-leaf stage, assessed visually after about 3 weeks; 100% = plants have died, 0% = like control plants
Method: as §1

Echinochloa crus-galli [5] = test: Post-emergence herbicidal effect; details: 80 g/ha, post-emergence at one-leaf stage, assessed visually after about 3 weeks; 100% = plants have died, 0% = like control plants
Method: as §1

Avena fatua = test: Pre-emergence herbicidal effect; details: 80 g/ha, scored visually after 3 weeks, 100% = plants have died, 0% = like control plants
Source text: (§2) Seeds of monocotyledonous and dicotyledonous weed plants and crop plants are laid out in sandy loam soil in wood-fiber pots and covered with soil. The compounds of the invention, formulated in the form of wettable powders (WP) or as emulsion concentrates (EC), are then applied to the surface of the covering soil as aqueous suspension or emulsion at a water application rate equating to 600 to 800 L/ha with addition of 0.2% wetting agent.
(§3) After the treatment, the pots are placed in a greenhouse and kept under good growth conditions for the trial plants. The damage to the test plants is scored visually after a test period of 3 weeks by comparison with untreated controls (herbicidal activity in percent (%): 100% activity=the plants have died, 0% activity=like control plants).

Alopecurus myosuroides [6] = test: Pre-emergence herbicidal effect; details: 80 g/ha, scored visually after 3 weeks, 100% = plants have died, 0% = like control plants
Source text: as §2, §3

Hordeum murinum [7] = test: Pre-emergence herbicidal effect; details: 80 g/ha, scored visually after 3 weeks, 100% = plants have died, 0% = like control plants
Source text: as §2, §3

Setaria viridis [8] = test: Pre-emergence herbicidal effect; details: 80 g/ha, scored visually after 3 weeks, 100% = plants have died, 0% = like control plants
Source text: as §2, §3

Lolium rigidum [9] = test: Pre-emergence herbicidal effect; details: 80 g/ha, scored visually after 3 weeks, 100% = plants have died, 0% = like control plants
Source text: as §2, §3

Echinochloa crus-galli [10] = test: Pre-emergence herbicidal effect; details: 80 g/ha, scored visually after 3 weeks, 100% = plants have died, 0% = like control plants
Source text: as §2, §3

| Structure (SMILES) | Post-emergence action against ALOMY (herbicidal action in per cent) (Alopecurus myosuroides [1]) [%] | Post-emergence action against HORMU (herbicidal action in per cent) (Hordeum murinum [2]) [%] | Post-emergence action against SETVI (herbicidal action in per cent) (Setaria viridis [3]) [%] | Post-emergence action against LOLRI (herbicidal action in per cent) (Lolium rigidum [4]) [%] | Post-emergence action against DIGSA (herbicidal action in per cent) (Digitaria sanguinalis) [%] | Post-emergence action against ECHCG (herbicidal action in per cent) (Echinochloa crus-galli [5]) [%] | Pre-emergence action against AVEFA (herbicidal activity in percent) (Avena fatua) [%] | Pre-emergence action against ALOMY (herbicidal activity in percent) (Alopecurus myosuroides [6]) [%] | Pre-emergence action against HORMU (herbicidal activity in percent) (Hordeum murinum [7]) [%] | Pre-emergence action against SETVI (herbicidal activity in percent) (Setaria viridis [8]) [%] | Pre-emergence action against LOLRI (herbicidal activity in percent) (Lolium rigidum [9]) [%] | Pre-emergence action against ECHCG (herbicidal activity in percent) (Echinochloa crus-galli [10]) [%] |
| --- | --- | --- | --- | --- | --- | --- | --- | --- | --- | --- | --- | --- |
| CC#Cc1cc(Br)c(C2=C(OC(=O)OCC)C3(CCCC(OCCOC)C3)NC2=O)c(OCC)c1 (centres unmarked) [Example 1.1.19] | 100 | 100 | 100 | 100 | 100 | 100 |  |  |  |  |  |  |
| CC#Cc1cc(Br)c(C2=C(O)C3(CCCC(OCCOC)C3)NC2=O)c(OCC)c1 (centres unmarked) [Example 1.1.17] | 100 | 100 | 100 | 100 | 100 | 100 |  |  |  |  |  |  |
| C#Cc1cc(Br)c(C2=C([O-])C3(CCCC(OCCC)C3)NC2=O)c(OC)c1.[Na+] (centres unmarked) [Example 1.1.02] | 100 | 100 | 100 | 100 | 100 | 100 | 100 | 100 | 100 | 100 | 100 | 100 |
| CC#Cc1cc(Br)c(C2=C(O)C3(CCCC(OCCOC)C3)NC2=O)c(OC)c1 (centres unmarked) [Example 1.1.13] | 100 | 100 | 100 | 100 |  | 100 | 100 | 100 | 100 | 100 | 100 | 100 |
| CC#Cc1cc(Br)c(C2=C([O-])C3(CCCC(OCCOC)C3)NC2=O)c(OCC)c1.[Na+] (centres unmarked) [Example 1.1.18] | 100 | 100 | 100 | 100 | 100 | 100 |  |  |  |  |  |  |
| C#Cc1cc(Br)c(C2=C(O)C3(CCCC(OCCC)C3)NC2=O)c(OC)c1 (centres unmarked) [Example 1.1.01] | 90 | 80 | 100 | 90 | 90 | 100 | 100 | 90 | 90 | 100 | 100 | 100 |
| CC#Cc1cc(Br)c(C2=C([O-])C3(CCCC(OCCOC)C3)NC2=O)c(OC)c1.[Na+] (centres unmarked) [Example 1.1.14] | 80 | 80 | 90 | 90 |  | 90 | 100 | 100 | 100 | 100 | 100 | 100 |
| CC#Cc1cc(Br)c(C2=C(OC(=O)C(C)C)C3(CCCC(OCCOC)C3)NC2=O)c(OC)c1 (centres unmarked) [Example 1.1.16] | 100 | 100 | 100 | 100 |  | 100 | 100 | 100 | 100 | 100 | 100 | 100 |
| CC#Cc1cc(Br)c(C2=C([O-])C3(CCCC(OCCC)C3)NC2=O)c(OC)c1.[Na+] (centres unmarked) [Example 1.1.10] | 90 | 100 | 90 | 90 |  | 100 | 100 | 90 | 100 | 100 | 100 | 100 |
| C#Cc1cc(Br)c(C2=C([O-])C3(CCCC(OCCOC)C3)NC2=O)c(OC)c1.[Na+] (centres unmarked) [Example 1.1.06] | 100 | 90 | 90 | 100 | 100 | 100 | 100 | 100 | 100 | 100 | 100 | 100 |

Source: patent US20230059463A1, “3-(2-BROMO-4-ALKYNYL-6-ALKOXYPHENYL)-SUBSTITUTED 5-SPIROCYCLOHEXYL-3-PYRROLIN-2-ONES AND THEIR USE AS HERBICIDES” (Bayer Aktiengesellschaft, priority 2019, published 2023)
